Measurements: patent US6369225B1, “Compounds having activity as inhibitors of cytochrome P450RAI” (Allergan Sales, Inc., priority 2000, dated 2002)

Legend:
[1] = target: T1, P450RAI-1 (Homo sapiens, UniProt O43174); experiment: P450RAI-1 cell-based inhibitor assay; settings: P450RAI-1 stably transfected HeLa cells, [3H]-RA metabolism, 3 hours at 37° C.; read-out: P450RAI INHIBITION DATA INTACT HELA IC50
T1 construct: expressed in transfected cells; host or cells: HeLa cells, stably transfected, hygromycin selection
T1 sequence (O43174 1-497): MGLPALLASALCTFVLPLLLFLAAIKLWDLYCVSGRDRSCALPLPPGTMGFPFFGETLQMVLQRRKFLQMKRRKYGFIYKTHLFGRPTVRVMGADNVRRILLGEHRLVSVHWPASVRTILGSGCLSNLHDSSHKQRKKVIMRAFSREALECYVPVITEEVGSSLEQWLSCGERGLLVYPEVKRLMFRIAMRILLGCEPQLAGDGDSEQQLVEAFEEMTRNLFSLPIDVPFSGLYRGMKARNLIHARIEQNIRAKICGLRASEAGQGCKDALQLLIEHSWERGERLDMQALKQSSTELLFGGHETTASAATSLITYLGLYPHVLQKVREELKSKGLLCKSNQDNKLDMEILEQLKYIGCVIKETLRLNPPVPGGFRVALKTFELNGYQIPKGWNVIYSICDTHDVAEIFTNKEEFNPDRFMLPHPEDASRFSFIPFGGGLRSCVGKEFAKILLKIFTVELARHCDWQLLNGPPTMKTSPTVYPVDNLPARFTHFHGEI
Method in brief: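 HeLa cells stably expressing the enzyme (5×10^5/well) incubated 3 h at 37 °C with 0.05 μCi [3H]-all-trans-RA and compound at 10, 1 or 0.1 μM in triplicate. Water-soluble radioactive metabolites counted by scintillation; IC50 derived manually from log-transformed data.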

[2] = target: T2, RARγ (Homo sapiens, UniProt P13631); experiment: ligand binding assay, RARγ; settings: Kd line of EC50/(EFFICACY)/Kd, read-out: RAR Kd γ
T2 sequence (P13631 1-454): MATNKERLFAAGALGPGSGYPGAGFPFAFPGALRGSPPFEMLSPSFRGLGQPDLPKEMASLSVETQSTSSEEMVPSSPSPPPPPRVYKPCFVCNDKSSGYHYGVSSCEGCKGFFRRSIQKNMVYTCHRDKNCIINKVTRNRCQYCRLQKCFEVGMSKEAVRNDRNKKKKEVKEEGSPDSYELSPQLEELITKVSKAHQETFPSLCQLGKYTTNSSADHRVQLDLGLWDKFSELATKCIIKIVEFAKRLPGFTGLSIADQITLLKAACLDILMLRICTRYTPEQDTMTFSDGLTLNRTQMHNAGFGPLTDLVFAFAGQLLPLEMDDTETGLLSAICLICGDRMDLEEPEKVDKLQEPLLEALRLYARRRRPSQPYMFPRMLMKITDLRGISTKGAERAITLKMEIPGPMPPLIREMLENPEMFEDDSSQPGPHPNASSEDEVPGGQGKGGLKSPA

[3] = target: T3, RARα (Homo sapiens, UniProt P10276); experiment: chimeric receptor transactivation assay, RARα; type: cell-based; settings: EC50 line of EC50/(EFFICACY)/Kd, read-out: RAR EC50 α
T3 sequence (P10276 183-462 limits assumed): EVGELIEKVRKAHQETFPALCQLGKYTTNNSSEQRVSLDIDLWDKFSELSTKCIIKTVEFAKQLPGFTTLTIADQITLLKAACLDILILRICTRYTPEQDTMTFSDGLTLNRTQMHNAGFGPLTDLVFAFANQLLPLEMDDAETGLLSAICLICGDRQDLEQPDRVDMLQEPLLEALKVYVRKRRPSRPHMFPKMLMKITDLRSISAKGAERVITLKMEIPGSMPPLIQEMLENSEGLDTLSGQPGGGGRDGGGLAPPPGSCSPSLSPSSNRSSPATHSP
Description: Assays described below measure the ability of a compound to bind to, and/or activate various retinoid receptor subtypes. When in these assays a compound binds to a given receptor subtype and activates the transcription of a reporter gene through that subtype, then the compound is considered an agonist of that receptor subtype. […] In the below described assays the ability of the compounds to bind to RARα, RARβ, RARγ, RXRα, RXRβ and RXRγ receptors, and the ability or inability of the compounds to activate transcription of a reporter gene through these receptor subtypes can be tested.
As far as specific assays are concerned, a chimeric receptor transactivation assay which tests for agonist-like activity in the RARα, RARβ, AND RARγ, receptor subtypes, and which is based on work published by Feigner P. L. and Holm M. (1989) Focus, 112 is described in detail in U.S. Pat. No. 5,455,265. The specification of U.S. Pat. No. 5,455,265 is hereby expressly incorporated by reference. The numeric results obtained with several preferred compounds of this invention in this assay are shown below in Table 1.

Compound	IC50 [1] [nM]	Kd [2] [nM]	EC50 [3] [nM]
Cc1cc(C#Cc2ccc(C(=O)O)cc2)ccc1C1(OCc2ccccc2)CC1 [Compound 81, 4-[4-(1-Benzyloxycyclopropyl)-3-methyl-phenylethynyl]-benzoic Acid]	> 10000	1060	
CC(C)OC1(c2ccc(C#Cc3ccc(C(=O)O)cc3)cc2)CC1 [Compound 73, 4-[4-(1-Isopropoxycyclopropyl)-phenylethynyl]-benzoic Acid]	> 10000	351	
CC1(C)CCC(=O)c2ccc(C#Cc3ccc(CC(=O)O)cc3)cc21 [Compound 5, 4-[(8,8-Dimethyl-5-oxo-5,6,7,8-tetrahydro-naphthalene-2-yl-ethynyl)-phenyl]-acetic Acid]	550	> 10000	
COC1(c2ccc(C#Cc3ccc(C(=O)O)cc3)cc2)CC1 [Compound 69, 4-[4-(1-Methoxycyclopropyl)-phenylethynyl]-benzoic Acid]	> 10000	501	313
CCCN(CCC)C1(c2ccc(C#Cc3ccc(C(=O)O)cc3)cc2)CC1 [Compound 110, 4-[4-(1-Dipropylamino-cyclopropyl)-phenylethynyl]-benzoic Acid]	> 10000	< 10000	
CCCNC1(c2ccc(C#Cc3ccc(C(=O)O)cc3)cc2)CC1 [Compound 108, 4-[4-(1-Propylamino-cyclopropyl)-phenylethynyl]-benzoic Acid]	> 10000	13000	6.6
CC1(C)CC2(CC2)Oc2ccc(C#Cc3ccc(C(=O)O)cc3)cc21 [Compound 40, Benzoic Acid, 4-[(3,4-dihydro-4,4-dimethylspiro[2H-1-benzopyran-2,1′-cyclopropane]-6-yl)ethynyl]-]	1700	363	33
Cc1cc(C#Cc2ccc(C(=O)O)cc2)ccc1C1(OC(C)C)CC1 [Compound 85, 4-[4-(1-Isopropoxycyclopropyl)-3-methyl-phenylethynyl]-benzoic Acid]	> 10000	302	976
O=C(O)c1ccc(C#Cc2ccc(C3(NCc4ccccc4)CC3)cc2)cc1 [Compound 112, 4-[4-(1-Benzylamino-cyclopropyl)-phenylethynyl]-benzoic Acid]	> 10000	685	
CC1(C)CC2(CC2)Oc2ccc(C#Cc3ccc(C(=O)O)c(F)c3)cc21 [Compound 44, 2-Fluoro-benzoic Acid, 4-[(3,4-dihydro-4,4-dimethylspiro[2H-1-benzopyran-2,1′-cyclopropane]-6-yl)ethynyl]-]	270	392	49
CCc1cc(C#Cc2ccc(C(=O)O)cc2)ccc1C1(OCc2ccccc2)CC1 [Compound 93, 4-[4-(1-Benzyloxycyclopropyl)-3-ethyl-phenylethynyl]-benzoic Acid]	> 10000	358	4820
CN(C1CC1)C1CCC(C)(C)c2cc(C#Cc3ccc(C(=O)O)cc3)ccc21 (stereo not drawn) [Compound 3, 4-[(5-Cyclopropyl-methyl-amino)-8,8-dimethyl-5,6,7,8-tetrahydro-naphthalene-2yl-ethynyl]-benzoic Acid]	3000	158	280
Cc1cc(C#Cc2ccc(C(=O)O)cc2)ccc1C1(OCC(C)(C)C)CC1 [Compound 89, 4-[4-[1-(2,2-Dimethylpropyloxy)-cyclopropyl]-3-methyl-phenylethynyl]-benzoic Acid]	> 10000	475	268
CN(C1CC1)C1CCC(C)(C)c2cc(C#Cc3ccc(CC(=O)O)cc3)ccc21 (stereo not drawn) [Compound 8, 4-[(5-(Cyclopropyl-methyl-amino)-8,8-dimethyl-5,6,7,8-tetrahydro-naphthalene-2-yl-ethynyl)-phenyl]-acetic Acid]	400	25000	
